Measured values published in paper PMC6940354, “Comparative Assessment of the New PDE7 Inhibitor – GRMS-55 and Lisofylline in Animal Models of Immune-Related Disorders: A PK/PD Modeling Approach” (Pharmaceutical Research, 2020).
Marks after values point to notes of the source that are not given here.

What was measured:
hrPDE4D = hrPDE4D (Homo sapiens, UniProt Q08499); assay: PDE-Glo Phosphodiesterase Assay, hrPDE4D
Procedure: (§1) Inhibitory activity of the investigated and reference compounds against various subtypes of PDEs was analyzed using the PDE-Glo Phosphodiesterase Assay following the manufacturer’s instruction (Promega Corp., USA). […] The values of IC50, Imax, and γ parameters of the investigated and reference compounds were estimated using non-linear regression in Phoenix WinNonlin v. […] Each sample was performed in quadruplicate and the relative activity of each sample was calculated as E=sample activity/control activity·100% .
(§2) One and a half μL aliquots of PDE-Glo reaction buffer containing appropriate amounts of human recombinant PDE (hrPDE) 1B, 2A, 3A, 4B, 4D, 5A, 7A, or 10A (SignalChem, Richmond, Canada) were placed into separate wells of a 384-well plate (Thermo Scientific, USA). The investigated compounds were initially dissolved in DMSO and then a serial dilution with DMSO was performed. Each dilution was mixed with PDE-Glo reaction buffer at a ratio of 1:5 (v/v). Then, 1 μL of the solution containing a PDE inhibitor and 2.5 μL of the substrate solution were added to each well. cGMP was used as a substrate in the case of hrPDE2A and hrPDE5A, while cAMP for other types of hrPDEs. The samples were incubated for 10 min at 30°C. […] The luminescence of each sample was measured by a microplate reader POLARstar Omega (BMG LABTECH, Germany).

hrPDE5A = hrPDE5A (Homo sapiens, UniProt O76074); assay: PDE-Glo Phosphodiesterase Assay, hrPDE5A
Procedure: as §1, §2

hrPDE3A = hrPDE3A (Homo sapiens, UniProt Q14432); assay: PDE-Glo Phosphodiesterase Assay, hrPDE3A
Sequence of hrPDE3A (Q14432 whole entry): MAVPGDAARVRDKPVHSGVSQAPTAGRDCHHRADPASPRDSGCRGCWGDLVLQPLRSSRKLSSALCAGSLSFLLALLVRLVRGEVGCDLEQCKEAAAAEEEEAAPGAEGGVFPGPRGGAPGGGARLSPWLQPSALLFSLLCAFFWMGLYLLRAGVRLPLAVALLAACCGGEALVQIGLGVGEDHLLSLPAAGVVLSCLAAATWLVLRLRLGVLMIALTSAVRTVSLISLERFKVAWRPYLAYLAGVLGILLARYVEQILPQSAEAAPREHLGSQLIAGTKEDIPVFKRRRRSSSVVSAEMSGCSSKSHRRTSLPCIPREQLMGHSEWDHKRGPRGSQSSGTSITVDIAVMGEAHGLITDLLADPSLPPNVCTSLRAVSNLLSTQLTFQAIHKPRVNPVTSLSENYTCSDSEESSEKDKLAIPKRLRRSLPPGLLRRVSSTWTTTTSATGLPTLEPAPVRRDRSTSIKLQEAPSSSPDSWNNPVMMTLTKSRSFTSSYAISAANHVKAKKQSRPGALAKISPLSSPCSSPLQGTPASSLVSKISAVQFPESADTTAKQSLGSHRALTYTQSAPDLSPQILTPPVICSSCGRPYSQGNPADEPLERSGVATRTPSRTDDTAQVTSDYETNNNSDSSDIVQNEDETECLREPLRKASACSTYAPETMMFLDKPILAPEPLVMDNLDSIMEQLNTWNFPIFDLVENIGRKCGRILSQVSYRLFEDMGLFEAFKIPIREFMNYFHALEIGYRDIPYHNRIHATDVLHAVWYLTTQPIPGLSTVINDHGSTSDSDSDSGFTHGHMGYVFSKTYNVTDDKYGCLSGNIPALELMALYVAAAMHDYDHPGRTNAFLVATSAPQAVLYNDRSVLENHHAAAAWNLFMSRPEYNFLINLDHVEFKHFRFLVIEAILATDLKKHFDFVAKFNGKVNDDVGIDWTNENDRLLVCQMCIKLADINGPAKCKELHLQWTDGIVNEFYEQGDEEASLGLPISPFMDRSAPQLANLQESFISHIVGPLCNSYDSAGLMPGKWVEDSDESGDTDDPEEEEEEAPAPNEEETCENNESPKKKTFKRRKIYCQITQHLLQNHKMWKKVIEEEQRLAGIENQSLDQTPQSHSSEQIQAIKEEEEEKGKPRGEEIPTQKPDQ
Procedure: as §1, §2

hrPDE7A = target: T1, hrPDE7A (Homo sapiens, UniProt Q13946); assay: PDE-Glo Phosphodiesterase Assay, hrPDE7A; type: biochemical; details: cAMP substrate, read-out: IC50 PDE7A, Estimate (CV%)
T1 construct: purchased SignalChem, Richmond, Canada
T1 sequence (Q13946 whole entry): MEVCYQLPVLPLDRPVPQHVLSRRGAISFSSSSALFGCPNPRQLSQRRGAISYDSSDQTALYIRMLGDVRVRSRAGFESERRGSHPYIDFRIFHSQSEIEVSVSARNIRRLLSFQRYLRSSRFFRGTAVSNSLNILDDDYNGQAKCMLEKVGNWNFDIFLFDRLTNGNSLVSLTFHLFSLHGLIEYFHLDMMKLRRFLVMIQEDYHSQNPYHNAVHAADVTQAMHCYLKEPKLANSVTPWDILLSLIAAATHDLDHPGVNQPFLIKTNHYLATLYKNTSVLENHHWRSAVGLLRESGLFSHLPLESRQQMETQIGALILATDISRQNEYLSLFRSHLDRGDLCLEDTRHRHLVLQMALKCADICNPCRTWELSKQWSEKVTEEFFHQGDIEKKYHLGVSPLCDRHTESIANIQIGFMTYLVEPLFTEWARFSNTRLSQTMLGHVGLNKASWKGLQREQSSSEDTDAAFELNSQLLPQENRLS
Procedure: as §1, §2

[1] = design: method as in PMID 27065076; details: male Wistar rats; data already published ref [10]; cited from earlier work
hrPDE1B = target: T2, hrPDE1B (Homo sapiens, UniProt Q01064); assay: PDE-Glo Phosphodiesterase Assay, hrPDE1B; type: biochemical; details: cAMP substrate, read-out: IC50 PDE1B, Estimate (CV%)
T2 construct: purchased SignalChem, Richmond, Canada
T2 sequence (Q01064 whole entry): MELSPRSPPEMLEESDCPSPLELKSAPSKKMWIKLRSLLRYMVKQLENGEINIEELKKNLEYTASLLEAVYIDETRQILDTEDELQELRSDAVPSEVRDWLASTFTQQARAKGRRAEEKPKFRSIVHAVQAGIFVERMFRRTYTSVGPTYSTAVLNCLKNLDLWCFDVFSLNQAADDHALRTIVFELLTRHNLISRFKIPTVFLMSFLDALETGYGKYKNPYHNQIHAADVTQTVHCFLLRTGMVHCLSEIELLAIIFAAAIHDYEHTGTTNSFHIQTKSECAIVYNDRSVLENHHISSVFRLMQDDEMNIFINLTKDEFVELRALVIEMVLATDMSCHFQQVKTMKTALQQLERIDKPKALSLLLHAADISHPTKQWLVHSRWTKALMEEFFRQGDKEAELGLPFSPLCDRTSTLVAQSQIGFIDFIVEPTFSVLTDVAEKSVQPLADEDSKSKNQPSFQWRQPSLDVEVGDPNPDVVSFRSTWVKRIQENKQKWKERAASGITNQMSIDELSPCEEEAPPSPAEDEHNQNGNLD
Procedure: as §1, §2

cAMP degradation = system: cAMP degradation; design: method as in PMID 28730281; details: rats, cAMP as a marker of pharmacological response ref [9]; cited from earlier work
[2] = Pharmacokinetics in male Wistar rats; type: in vivo, rat; details: for half-life: male rats (Wistar), IV, read-out: elimination half-life
Procedure: The same vehicles as these in pharmacodynamic studies for each compound and route of administration were used. Rats were implanted with catheters into the jugular vein and after a two-day period they were administered with the investigated compounds by the listed above routes of administration. […] Samples were subsequently centrifuged at 3000 × g for 10 min. Plasma was stored at −80°C until analysis.
A detailed description of these methods has been provided in the supplementary materials.
Firstly, the concentration-time data collected for each individual compound from one of the investigated rat strains (Wistar or Lewis) were subjected to a non-compartmental analysis (NCA). Subsequently, pharmacokinetic models were developed for each investigated compound and strain of rat. One- and two- compartment models with linear or non-linear elimination were tested. […] The final models were chosen based on the goodness-of-fit criteria, such as Akaike Information Criterion (AIC), Schwarz Bayesian Criterion (SBC), weighted sum of squared residuals (WSSR), a visual inspection of fitting, and precision of estimated parameters expressed as coefficients of variation % (CVs%). NCA analysis was performed in Phoenix WinNonlin v. 7.0 (Pharsight Corp., a Certara Company, Princeton, New Jersey). Pharmacokinetic model parameters were estimated in ADAPT 5 software (BMSR, Los Angeles, CA) using the weighted least squares algorithm. Fraction of the dose absorbed (F) following an extravascular (EV) administration was calculated according to the Eq. 4:4 F=AUC0−tEV·DIV/AUC0−tIV·DEV where AUC0-t is the area under concentration versus time curve from 0 to the last measured point and D is dose.
PK/PD and PK/PD/DIS progression models were developed considering the mechanism of action of the investigated compounds, the mechanisms of disease progression in the case of CIA, and the subsequent stages leading to TNF-α release in the case of LPS-induced endotoxemia. Various numbers of transit compartments were tested during development of the models, and the final models were chosen based on the goodness-of-fit criteria, such as AIC, SBC, a visual inspection of the fitting, and parameter precision. Estimated values of pharmacokinetic parameters were fixed during PK/PD and PK/PD/DIS progression model fitting procedures. […] PK/PD and PK/PD/DIS progression modeling were performed in ADAPT 5 software using the weighted least squares algorithm.
The applied model is a modified indirect response model ([19]) with implemented transit compartments (T1-T4) that describe the delay of the observed pharmacodynamic response. In this scheme τ is the mean transit time, kin is the time limited (from 0 to tlag) zero-order rate constant of production of a TNF-α precursor (e.g., TNF-α mRNA). […]

[3] = depending on the species; earlier study ref [37]; cited from earlier work
[4] = system: LPS-stimulated murine macrophages (RAW263.7 cells); design: method as in PMID 14998551; details: LPS-stimulated murine macrophage cell line ref [31]; read-out: IC50, TNF-α production; cited from earlier work

Sequence of hrPDE4D (Q08499 whole entry): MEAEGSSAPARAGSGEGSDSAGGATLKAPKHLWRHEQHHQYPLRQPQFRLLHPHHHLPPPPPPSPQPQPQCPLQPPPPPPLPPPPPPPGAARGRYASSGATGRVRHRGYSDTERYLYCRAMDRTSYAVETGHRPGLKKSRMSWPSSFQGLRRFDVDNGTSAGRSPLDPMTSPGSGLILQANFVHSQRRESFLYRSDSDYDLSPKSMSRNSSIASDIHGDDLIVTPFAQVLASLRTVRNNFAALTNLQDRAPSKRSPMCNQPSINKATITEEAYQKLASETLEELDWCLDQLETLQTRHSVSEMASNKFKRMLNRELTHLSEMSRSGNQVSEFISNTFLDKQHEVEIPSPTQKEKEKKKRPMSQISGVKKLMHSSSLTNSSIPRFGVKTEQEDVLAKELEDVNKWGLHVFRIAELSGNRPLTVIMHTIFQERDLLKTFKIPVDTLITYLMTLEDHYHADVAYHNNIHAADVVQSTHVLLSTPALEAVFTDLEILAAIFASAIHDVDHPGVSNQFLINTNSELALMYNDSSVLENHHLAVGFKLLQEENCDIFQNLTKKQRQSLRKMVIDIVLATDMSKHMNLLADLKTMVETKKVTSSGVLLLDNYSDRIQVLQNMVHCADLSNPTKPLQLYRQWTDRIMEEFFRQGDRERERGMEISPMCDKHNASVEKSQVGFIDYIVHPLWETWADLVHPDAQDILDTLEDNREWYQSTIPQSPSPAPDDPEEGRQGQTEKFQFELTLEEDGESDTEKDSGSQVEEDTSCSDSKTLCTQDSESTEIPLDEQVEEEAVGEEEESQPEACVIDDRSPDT

IC50 (hrPDE4D) [µM]	IC50 (hrPDE5A) [µM]	IC50 (hrPDE3A) [µM]	IC50 (hrPDE7A) [µM]	IC50 (hrPDE1B) [µM]	elimination rate constant, times lower than that of rolipram ([2]; compared to rolipram)	Vd ([2]; rat, plasma, male Wistar rats, GRMS-55 IV 20 mg kg^−1, 1-compartment model, read-out: V(GRMS-55), volume of distribution, Estimate (CV%)) [L/kg]	SMILES	VLSF, volume of distribution of (±)-LSF, Estimate (CV%) [1]	Vmax, maximal elimination rate constant of (±)-LSF, Estimate (CV%) [1]	IC50 value for the inhibition of cAMP degradation (cAMP degradation) [µg/mL]	half-life ([2]; rat, plasma) [min]	elimination half-life [3] [min]	IC50 [4] [µM]
> 200	> 100	73.4	297	12.9	–	–	CC(O)CCCCn1c(=O)c2c(ncn2C)n(C)c1=O (racemic) [(±)-LSF, lisofylline]	1.22 (3.4)^a L kg^−1	0.433 (56.9)^a mg min^−1 kg^−1	3.43	–	–	–
> 200	> 100	13.4	–	2.5	approx. 2 times	1.59	Cn1c(=O)c2c(nc(NCCc3ccccc3)n2CCCC(=O)NN=Cc2ccccc2O)n(C)c1=O [GRMS-55, 4-(1,3-Dimethyl-2,6-dioxo-8-(phenethylamino)-2,3,6,7-tetrahydro-1H-purin-7-yl)-N′-(2-hydroxybenzylidene)butanehydrazide]	–	–	–	22	–	–
–	–	–	–	–	–	–	COc1ccc(C2CNC(=O)C2)cc1OC1CCCC1 (stereo not drawn) [Rolipram, rolipram]	–	–	–	11	60 to 180	0.0593
